PubChem BioAssay AID1259407 (Chemical Carcinogenesis Research Information System (CCRIS), 2018)
Activity calls are given as the source filed them. The rule behind the calls is not given here.

System: CCRIS mutagenicity, Ames/micronucleus/aberration tests
Test: CCRIS mutagenicity studies
Conditions: Test System: AMES SALMONELLA TYPHIMURIUM

With Nc1ccc(-c2ccccc2)cc1 the mutagenic call (Strain/Indicator: DJ400, Metabolic Activation: TOBACCO TX1 CELLS, Method: PREINCUBATION) was “inactive; negative”, the mutagenic call (Strain/Indicator: DJ460, Metabolic Activation: TOBACCO TX1 CELLS, Method: PREINCUBATION) was “active; positive” and the mutagenic call (Strain/Indicator: MP110, Metabolic Activation: TOBACCO TX1 CELLS, Method: PREINCUBATION) was “inactive; negative”. The mutagenic call (Strain/Indicator: MP120, Metabolic Activation: TOBACCO TX1 CELLS, Method: PREINCUBATION) was “inactive; negative”, the mutagenic call (Strain/Indicator: MP208, Metabolic Activation: TOBACCO CELL-FREE TXIMX, Method: PREINCUBATION) was “active; positive” and the mutagenic call (Strain/Indicator: MP219, Metabolic Activation: TOBACCO CELL-FREE TXIMX, Method: PREINCUBATION) was “active; positive”. The mutagenic call (Strain/Indicator: TA97, Metabolic Activation: NONE, Method: STANDARD PLATE) was “inactive; negative”, the mutagenic call (Strain/Indicator: TA97, Metabolic Activation: RAT, LIVER, S-9, AROCLOR 1254, Method: STANDARD PLATE) was “active; positive” and the mutagenic call (Strain/Indicator: TA98(1,8-DNP6), Metabolic Activation: PLANT CELLS, Method: PREINCUBATION) was “active; positive”. The mutagenic call (Strain/Indicator: TA98(1,8-DNP6), Metabolic Activation: TOBACCO CELL-FREE TXIMX, Method: PREINCUBATION) was “inactive; negative”, the mutagenic call (Strain/Indicator: TA98(NR), Metabolic Activation: TOBACCO CELL-FREE TXIMX, Method: PREINCUBATION) was “active; positive” and the mutagenic call (Strain/Indicator: TA98, Metabolic Activation: HUMAN, RED BLOOD CELL, CYTOSOL, Method: PREINCUBATION) was “active; positive”. The mutagenic call (Strain/Indicator: TA98, Metabolic Activation: HUMAN, UROEPITHELIAL CELL CYTOSOL, Method: PREINCUBATION) was “inactive; negative”, the mutagenic call (Strain/Indicator: TA98, Metabolic Activation: HUMAN, UROEPITHELIAL CELL, MICROSOMES, Method: PREINCUBATION) was “inactive; negative” and the mutagenic call (Strain/Indicator: TA98, Metabolic Activation: HUMAN, UROEPITHELIAL CELL, S-9, Method: PREINCUBATION) was “inactive; negative”. For the same compound, the mutagenic call (Strain/Indicator: TA98, Metabolic Activation: NONE, Method: PREINCUBATION) was “inactive; negative”, the mutagenic call (Strain/Indicator: TA98, Metabolic Activation: PLANT CELLS, Method: PREINCUBATION) was “active; positive” and the mutagenic call (Strain/Indicator: TA98, Metabolic Activation: RAT LIVER S-9, AROCLOR 1254, Method: PREINCUBATION) was “active; positive”. For the same compound, the mutagenic call (Strain/Indicator: TA98, Metabolic Activation: RAT LIVER S-9, AROCLOR, Method: STANDARD PLATE) was “active; positive”, the mutagenic call (Strain/Indicator: TA98, Metabolic Activation: RAT, BLADDER, S-9, PCB, Method: FLUCTUATION TEST) was “active; positive” and the mutagenic call (Strain/Indicator: TA98, Metabolic Activation: RAT, LIVER, S-9, AROCLOR 1254 (4%), Method: STANDARD PLATE) was “active; positive”. For the same compound, the mutagenic call (Strain/Indicator: TA98, Metabolic Activation: RAT, LIVER, S-9, KC500 OR PHENOBARBITAL, Method: LIQUID SUSPENSION) was “active; positive”, the mutagenic call (Strain/Indicator: TA98, Metabolic Activation: TOBACCO CELL-FREE TXIMX, Method: PREINCUBATION) was “active; positive” and the mutagenic call (Strain/Indicator: TA100 (1,8-DNP), Metabolic Activation: MOUSE LIVER S-9, AROCLOR 1254, 10%, Method: PREINCUBATION) was “active; positive”. The mutagenic call (Strain/Indicator: TA100 (1,8-DNP), Metabolic Activation: RAT LIVER S-9, AROCLOR 1254, 10%, Method: PREINCUBATION) was “active; positive”, the mutagenic call (Strain/Indicator: TA100(NR), Metabolic Activation: TOBACCO CELL-FREE TXIMX, Method: PREINCUBATION) was “active; positive” and the mutagenic call (Strain/Indicator: TA100(TN:OAT), Metabolic Activation: TOBACCO CELL-FREE TXIMX, Method: PREINCUBATION) was “active; positive”. For the same compound, the mutagenic call (Strain/Indicator: TA100, Metabolic Activation: MOUSE LIVER S-9, AROCLOR 1254, 10%, Method: PREINCUBATION) was “active; positive”, the mutagenic call (Strain/Indicator: TA100, Metabolic Activation: NONE, Method: PREINCUBATION) was “inactive; negative” and the mutagenic call (Strain/Indicator: TA100, Metabolic Activation: RAT LIVER S-9, AROCLOR 1254, 10%, Method: PREINCUBATION) was “active; positive”. For the same compound, the mutagenic call (Strain/Indicator: TA100, Metabolic Activation: RAT LIVER S-9, AROCLOR 1254, Method: PREINCUBATION) was “active; positive”, the mutagenic call (Strain/Indicator: TA100, Metabolic Activation: RAT LIVER S-9, AROCLOR, Method: STANDARD PLATE) was “active; positive” and the mutagenic call (Strain/Indicator: TA100, Metabolic Activation: RAT, BLADDER, S-9, PCB, Method: FLUCTUATION TEST) was “inactive; negative”. For the same compound, the mutagenic call (Strain/Indicator: TA100, Metabolic Activation: RAT, LIVER, S-9, KC500 OR PHENOBARBITAL, Method: LIQUID SUSPENSION) was “active; positive”.
